Measurements from patent US20060234919A1, “Use” (priority 2001, published 2006).

Legend:
[1] = test system: caerulein-induced pancreatitis; assay: caerulein-induced pancreatitis, pancreatic edema; format: in vivo, rat; settings: subcutaneous pre-treatment 1 mg/ml; caerulein alone 8.11±0.96, control 3.12±0.52
Method: Caerulein-induced pancreatitis: Female Sprague-Dawley rats (200-250 g) were anaesthetized with pentobarbitone sodium and phenobarbitone sodium (each 40 mg/kg, i.p.). The cholecystokinin analogue caerulein (8 nmol/kg in 2 h) was infused via one jugular vein for exocrine hyperstimulation and induction of acute edematous pancreatitis (Lampel M, Kern H F. Acute interstitial pancreatitis in the rat in-duced by excessive doses of a pancreatic secretagogue. Virchows Arch (Pathol Anat) 1997; 373: 97-117), while control animals were infused with a corresponding volume (4 ml/kg/h) of phosphate-buffered saline. Pre-treatment with the kininase II inhibitor captopril ([…], i. p.) was given 30 min prior to the infusion of caerulein. At the end of the experiment, the animals were sacrificed with an overdose of pentobarbital sodium. The pancreatic tissue was dried for 16 h in a vacuum centrifuge and the edema was quantified as fluid wt. per dry wt. of the tissue. For the determination of lipase activity in serum, the blood was collected following decapitation in separate groups of rats. The pancreas of these animals was excised an placed immediately into 2 ml of a 154 mmol/l solution of NaCl. After centrifugation at 2×10^5 m/s^2 for 25 min the supernatant was stored at −80° C. All samples were assayed for lipase activity (lipase test Boehringer Mannheim, Germany).

[2] = test system: collagenase-induced cutaneous inflammation; assay: collagenase-induced cutaneous plasma protein extravasation; format: in vivo, guinea-pig
Method: One hour after anaesthesia of guinea-pigs with urethane (1.6 g/kg, i.p.), Evans blue (20 mg/kg) was injected into a jugular vein. Collagenase ([…]) or its solvent ([…] 154 mmol/l NaCl solution) was injected s. c. into the dorsal skin. All doses of collagenase as well as the solvent were injected on both sides of the spine in randomised order. The ensuing plasma protein extravasation was determined at 60 min by extraction of Evans blue (see above) from the dorsal skin.
Oxytocin was dissolved and diluted in DMSO for all experiments involving s. c. injection in volumes of 1.0 ml/kg. All pretreatments were given 1 h prior to the induction of the respective model of inflammation. All animal experiments approved of by Karolinska institutets animal committe.
Oxytocin was a gift from Poly Peptides Copenhagen, Denmark and was dissolved in phosphate-buffered saline (composition in mmol/l: NaCl 136.9, KCl 2.7, KH2PO4 1.5, Na2HPO4 7.7). Cyclophosphamide monohydrate and collagenase from Clostridium histolyticum (type II, clostridiopeptidase A, EC 3.4.24.3) were obtained from Sigma and were dissolved in 154 mmol/l NaCl.

[3] = test system: myeloperoxidase; assay: carrageenan induced myeloperoxidase accumulation in the hindpaw; format: in vivo, rat; settings: 1000 μg/kg s.c.; 6 hours after treatment; saline controls 5.4±1.1; p<0.01
Method: The rats were treated s.c. with oxytocin (1000 μg/kg) (n=6) or saline (n=6) immediately before the carrageenan injection. The accumulation of myeloperoxidase in the rat right hindpaw was measured 6 hours after the treatment with oxytocin or saline, and carrageenan. To determine the recruitment of neutrophils in response to the carrageenan induced inflammation in the rat hindpaw, the paws were weighed and homogenised in 10 ml 0.5% hexadecyltrimethyl-ammonium bromide (Sigma Chemical Co, USA), and freeze-thawed, whereafter the myeloperoxidase activity of the supernatant was assessed. The enzyme activity was determined spectrophotometrically as the change in absorbance at 650 nm (25° C.) occuring in the redox reaction of H2O2-tetramethylbenzidine (Sigma Chemical Co, USA) catalysed by myeloperoxidase. Values are expressed as myeloperoxidase units/g tissue. […] The myeloperoxidase concentration (i.e. the neutrophil recruitment) in the hindpaw was 3.5±0.72 units/g tissue in the oxytocin-treated rats compared to 5.4±1.1 units/g in the saline-treated controls (p<0.01) (FIG. 6).

[4] = test system: carrageenan induced hyperalgesia; assay: carrageenan induced hyperalgesia, Randall Selitto Test; format: in vivo, rat; settings: 1000 μg/kg s.c.; 1 hour and 6 hours after the injection, compared to controls; p<0.05
Method: Nociceptive thresholds were measured in the rats given oxytocin 1000 μg/kg s.c. and their controls. This was done by determining the response to mechanical stimulation using the Randall Selitto Test (Ugo Basile, type 7200, Italy). The mechanical stimulus was applied to the dorsal surface of the hindpaw by a wedged-shape pusher at a loading rate of 48 g/s and the pressure required to initiate the struggle response was measured. All rats were trained on three consecutive days before testing.

In the case of Oxytocin, the “water content of the pancreatic tissue (edema formation)” value [1] is reported as 5.25±0.68 g/g d. wt, the “effect on collagenase-induced plasma protein extravasation” value ([2]; 1 ug/ml oxytocin, 10 and 30 mg collagenase) is reported as “no effect” and the “cutaneous plasma protein extravasation, Evans blue accumulation” value ([2]; s.c. pre-treatment 1 mg/ml, 10 mg collagenase, without oxytocin 3.5±1.0) is reported as 2.2 ± 0.9 mg. For the same substance, the “effect on collagenase-induced plasma protein extravasation” value ([2]; s.c. pre-treatment 1 mg/ml, higher doses of the enzyme) was “attenuated the effect”, the “myeloperoxidase concentration (neutrophil recruitment) in the hindpaw” value [3] was 3.5±0.72 units/g tissue and the “nociceptive threshold, response to mechanical stimulation” value [4] was “increase in withdrawal latency”.
